In PMC3827828, “Novel angiotensin I-converting enzyme inhibitory peptides derived from an edible mushroom, Pleurotus cystidiosus O.K. Miller identified by LC-MS/MS” (BMC Complementary and Alternative Medicine, 2013):
Entries after “also recorded” stand apart in the source; their conditions may differ. Where two headings read alike, the source gives them in different places. Peptide text beside a SMILES is read from it.

What was measured:
[1] = target: T1, Angiotensin I-converting enzyme (ACE) (Homo sapiens, UniProt P12821); test: ACE inhibitory activity assay (ACE kit-WST); type: biochemical; conditions: synthesised peptide, absorbance 450 nm, triplicate, mean ± standard deviation
T1 construct: purchased Dojindo Laboratories ACE kit-WST
Method: (§1) In the current study, ACE inhibitory activity was determined using an ACE inhibitory assay kit (ACE kit-WST, Dojindo Laboratories, Kumamoto, Japan). The assay was carried out according to the protocol provided by the manufacturer. Absorbances of the reactions were measured using a Sunrise® ELISA microplate reader (Tecan, Grödig, Austria) at 450 nm. The ACE inhibitory activity of the samples was calculated using the formula given in the protocol. The concentration of the ACE inhibitor required to inhibit 50% of ACE activity under the above assay conditions was defined as the IC50.
The analysis of ACE inhibitory activity was carried out in triplicate and result was reported as mean ± standard deviation. Mean differences of ACE inhibitory activity in SEC fractions was analyzed using one-way ANOVA in Statgraphics Plus 3.0 at p < 0.05.

[2] = tested on: pepsin, trypsin and chymotrypsin; test: Stability against gastrointestinal enzymes observed by SEC; type: in vitro ADME; conditions: 0.1 mg/ml; pepsin pH 2.0 2.5 hrs, then trypsin + chymotrypsin pH 8.0 2.5 hrs, 37°C; Biosep SEC-S2000, UV 214 nm
Method: (§2) The stability of the synthesised peptides against gastrointestinal proteases was assessed in vitro by the method of Wu and Ding. The peptide solution (0.1 mg/ml, 0.5 ml) was incubated with 0.5 ml of a 0.05% pepsin solution (0.1 M HCl at pH 2.0) for 2.5 hrs at 37°C. In the successive pepsin-pancreatin digestion test, the peptide solution was adjusted to pH 8.0 after pepsin digestion. Then, 0.5 ml of pancreatin solution [potassium phosphate buffer (0.1 M, pH 8.0) containing 0.025% (w/v) chymotrypsin and 0.025% (w/v) trypsin] was added to the solution. The mixture was incubated for another 2.5 hrs at 37°C. The control (without digestion) consisted of peptide solution incubated in buffer solutions (HCl and potassium phosphate buffer) and was carried out alongside the experiment. After enzymatic treatment, the pepsin solution and pepsin-pancreatin solution were boiled for 10 min to stop the digestion and then centrifuged at 10,000 rpm for 10 min. The supernatants were freeze-dried and used for the measurement of ACE inhibitory activity. The stability of the purified peptides against gastrointestinal enzymes was analysed by SEC.
Figure 4 Stability of peptide AHEPVK against gastrointestinal enzymes observed by SEC chromatograms. Separation was performed on a Biosep SEC-S2000 column (300 × 7.8 mm). Mobile phase consisted of 45% acetonitrile containing 0.1% TFA eluted at a flow rate of 1.0 ml/min. […]

[3] = target: T1, Angiotensin I-converting enzyme (ACE); test: ACE inhibitory activity after simulated gastrointestinal digestion; type: biochemical; conditions: mean, n = 3; for inhibition at 100 µg/mL (stock): 0.1 mg/ml, pepsin 2.5 hrs, then pH 8.0, 0.025% chymotrypsin and 0.025% trypsin, another 2.5 hrs, read-out: ACE inhibitory activity after pepsin-pancreatin digestion; for inhibition at 100 µg/mL (stock) / ACE inhibitory activity after digestion by pepsin: 37°C; for ACE inhibitory activity without gastrointestinal digestion (control): peptide solution 0.1 mg/ml incubated in buffer solutions (HCl and potassium phosphate buffer); for ACE inhibitory activity after digestion by pepsin: peptide solution 0.1 mg/ml with 0.05% pepsin (0.1 M HCl, pH 2.0), 2.5 hrs
Method: as §1, §2
Figure 3 Effect of simulated gastrointestinal digestion on the ACE inhibitory activity of peptides AHEPVK and GPSMR. Control: The peptide solutions (0.1 mg/ml) were incubated in buffer solutions (HCl and potassium phosphate buffer). P: The peptide solutions were incubated with 0.05% pepsin solution for 2.5 hrs at 37°C. P + T + C: The peptide solutions were successively digested with pepsin for 2.5 hrs. They were further incubated in pancreatin solution for another 2.5 hrs at 37°C. The ACE inhibitory activity are expressed as mean ± standard deviation (n = 3).

[4] = tested on: ACE; conditions: cited from earlier work
Method: Peptide LRIPVA from spinach inhibited 50% of the ACE at a concentration as low as 0.38 μM [29]. However, there were also studies reported on similar IC50 value with the current study. […] It was predicted to remain stable throughout the digestion process. […] Jimsheena and Gouda had shown the important role of stere ... || (+ 2 further places)

[5] = peptides from milk and bonita fish

T1 sequence (P12821 30-1306, species assumed): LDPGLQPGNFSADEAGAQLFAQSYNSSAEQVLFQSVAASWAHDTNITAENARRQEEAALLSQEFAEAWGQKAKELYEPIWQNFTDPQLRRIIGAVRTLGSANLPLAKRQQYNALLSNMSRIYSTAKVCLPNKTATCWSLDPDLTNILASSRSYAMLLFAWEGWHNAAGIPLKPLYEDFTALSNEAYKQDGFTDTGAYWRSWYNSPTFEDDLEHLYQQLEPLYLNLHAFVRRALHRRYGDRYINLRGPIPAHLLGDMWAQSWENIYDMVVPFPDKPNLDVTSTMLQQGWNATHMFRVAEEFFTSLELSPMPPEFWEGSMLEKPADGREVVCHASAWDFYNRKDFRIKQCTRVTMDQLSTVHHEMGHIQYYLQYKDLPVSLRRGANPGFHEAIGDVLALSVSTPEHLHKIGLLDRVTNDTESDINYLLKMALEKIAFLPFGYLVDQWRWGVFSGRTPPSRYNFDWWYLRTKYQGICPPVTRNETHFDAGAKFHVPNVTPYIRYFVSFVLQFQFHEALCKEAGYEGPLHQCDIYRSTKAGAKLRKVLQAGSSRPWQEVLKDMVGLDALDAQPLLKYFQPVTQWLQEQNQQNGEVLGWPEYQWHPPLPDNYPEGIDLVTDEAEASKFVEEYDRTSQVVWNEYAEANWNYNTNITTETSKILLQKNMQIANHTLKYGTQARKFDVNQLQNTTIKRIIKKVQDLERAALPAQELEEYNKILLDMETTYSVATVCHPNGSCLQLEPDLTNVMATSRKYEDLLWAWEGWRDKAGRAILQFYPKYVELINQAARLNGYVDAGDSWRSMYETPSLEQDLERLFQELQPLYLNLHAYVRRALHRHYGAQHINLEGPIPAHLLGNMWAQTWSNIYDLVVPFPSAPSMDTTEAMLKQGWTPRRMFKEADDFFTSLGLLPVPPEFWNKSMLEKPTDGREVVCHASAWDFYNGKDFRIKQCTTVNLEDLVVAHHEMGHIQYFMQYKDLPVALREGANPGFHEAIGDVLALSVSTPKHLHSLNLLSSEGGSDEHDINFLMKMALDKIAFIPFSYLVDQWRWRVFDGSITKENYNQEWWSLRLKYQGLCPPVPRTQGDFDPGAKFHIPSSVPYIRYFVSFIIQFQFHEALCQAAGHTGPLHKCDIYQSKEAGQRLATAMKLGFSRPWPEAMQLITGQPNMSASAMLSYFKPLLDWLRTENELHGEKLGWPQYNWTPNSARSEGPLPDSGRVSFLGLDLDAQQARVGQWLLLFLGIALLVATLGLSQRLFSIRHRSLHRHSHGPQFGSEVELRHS

CC(C)[C@H](NC(=O)[C@@H]1CCCN1C(=O)[C@H](CCC(=O)O)NC(=O)[C@H](Cc1c[nH]cn1)NC(=O)[C@H](C)N)C(=O)N[C@@H](CCCCN)C(=O)O [AHEPVK] (H-AHEPVK-OH)
IC50 [1]: 62.8 µM | Stability of peptide against gastrointestinal enzymes (SEC chromatograms) [2]: stable throughout gastrointestinal digestion; also recorded: confirmed the stability of AHEPVK against digestive enzymes; also recorded: remained stable following gastrointestinal digestion | inhibition at 100 µg/mL (stock) [3]: 95.9% | ACE inhibitory activity without gastrointestinal digestion (control) [3]: 80.27% | ACE inhibitory activity after digestion by pepsin [3]: 95.38%

CSCC[C@H](NC(=O)[C@H](CO)NC(=O)[C@@H]1CCCN1C(=O)CN)C(=O)N[C@@H](CCCNC(=N)N)C(=O)O [GPSMR] (H-GPSMR-OH)
IC50 [1]: 278 µM | Stability of peptide against gastrointestinal enzymes (SEC chromatograms) [2]: hydrolysed after digestion; also recorded: hydrolysed into smaller fragments | inhibition at 100 µg/mL (stock) [3]: 96% | ACE inhibitory activity without gastrointestinal digestion (control) [3]: 67.08% | ACE inhibitory activity after digestion by pepsin [3]: 92.22%

C[C@H](CS)C(=O)N1CCC[C@H]1C(=O)O [captopril]
Inhibition pattern against ACE [4]: competitive manner

GPCSR [peptide from sweet potato]
IC50 ([4]; peptides from sweet potato): 276 µM

GTEKC [peptide from sweet potato]
IC50 ([4]; peptides from sweet potato): 61.7 µM

LKPNM [pentapeptide from bonita fish]
IC50 [4, 5]: 2.4 µM

LRIPVA [peptide from spinach]
IC50 ([4]; peptide from spinach): 0.38 µM

PYVRYL [hexapeptide from milk]
IC50 [4, 5]: 2.4 µM
